Test results as given in patent publication US10463747B2, “Method of developing a vaccine using peptide-poly IC complexes” (H. Lee Moffitt Cancer Center and Research Institute, Inc., priority 2011, dated 2019).
Where no end group is shown, it is not given here.

How the values were obtained:
MHC molecule = target: T1, MHC molecule (Mus musculus, UniProt P01899); conditions: arginine to alanine substitution at position 1; cited from earlier work
T1 sequence (P01899 25-362): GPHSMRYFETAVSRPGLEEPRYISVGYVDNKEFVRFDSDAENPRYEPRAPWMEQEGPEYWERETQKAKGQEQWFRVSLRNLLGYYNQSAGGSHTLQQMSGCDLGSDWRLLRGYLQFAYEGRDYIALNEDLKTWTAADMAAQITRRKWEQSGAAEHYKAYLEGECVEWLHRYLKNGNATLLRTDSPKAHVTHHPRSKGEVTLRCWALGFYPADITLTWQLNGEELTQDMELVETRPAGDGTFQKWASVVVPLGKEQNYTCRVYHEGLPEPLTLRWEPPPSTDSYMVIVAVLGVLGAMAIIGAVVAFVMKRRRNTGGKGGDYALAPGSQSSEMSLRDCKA
T1 sequence (P01887 21-119 partner): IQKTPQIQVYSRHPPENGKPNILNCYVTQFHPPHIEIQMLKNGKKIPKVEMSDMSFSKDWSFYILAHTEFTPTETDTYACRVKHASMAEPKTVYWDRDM

[1] = test system: CD8 T cell responses of peptide epitope HPV16-E749 (RAHYNIVTF); assay: Tetramer analysis of CD8 T cell responses after i.v. prime-boost vaccination with HPV16-E7 peptide mixed with Poly-IC; format: in vivo, mice; conditions: for immunogenicity of peptide epitope (CD8 T cell response, tetramer analysis): i.v. prime-boost 2 weeks apart, 30 μg peptide mixed with 50 μg Poly-IC, blood 7 days after boost
Procedure: CD8 T cell responses of peptide epitope HPV16-E749 (RAHYNIVTF) (SEQ ID NO:8) and HPV16-E749/1A (AAHYNIVTF) (SEQ ID NO:9) measured by tetramer analysis after i.v. prime-boost (2 weeks apart) vaccination using 30 μg peptide mixed with 50 μg Poly-IC. Immune responses in 3 individual mice measured 7 days after the boost in blood samples. Numbers below the oval gates correspond to the % tetramer positive (antigen-specific) cells of the total CD8 T cell population.
Comparison of CD8 T cell responses of peptide epitope HPV16-E749 (RAHYNIVTF) (SEQ ID NO:8) injected together with 50 μg Poly-IC (top panels) or 5 hours after the Poly-IC (bottom panels). Immune responses in 3 individual mice measured 7 days after an identical boost (12 days apart) in blood samples. Numbers below the oval gates correspond to the % tetramer positive (antigen-specific) cells of the total CD8 T cell population.

[2] = test system: CD8 T cell responses of peptide epitope Trp1455/9M (TAPDNLGYM); assay: Tetramer analysis of CD8 T cell responses after i.v. prime-boost vaccination with modified Trp1 peptide mixed with Poly-IC; format: in vivo, mice; conditions: for immunogenicity of peptide epitope (CD8 T cell response, tetramer analysis): i.v. prime-boost 2 weeks apart, blood 7 days after boost; for immunogenicity of peptide epitope compared with hepta-arginine (R)7 tail: three-arginine tail, FIG. 2
Procedure: CD8 T cell responses of peptide epitope Trp1455/9M (TAPDNLGYM) (SEQ ID NO:2) containing 3 types of tails with charged amino acids (R, K or E) and a short linker (MFV) (SEQ ID NO:3) were measured by tetramer analysis after i.v. prime-boost (2 weeks apart) vaccination using 120 μg peptide mixed with 50 μg Poly-IC. These sequences correspond to (R)7-MFV-TAPDNLGYM (SEQ ID NO:4); (K)7-MFV-TAPDNLGYM (SEQ ID NO:5); and (E)7-MFV-TAPDNLGYM (SEQ ID NO:6) respectively. Immune responses in 3 individual mice measured 7 days after the boost in blood samples. Numbers below the rectangular gates correspond to the % tetramer positive (antigen-specific) cells of the total CD8 T cell population.
The sequence for the three-arginine tail is (R)3-MFVTAPDNLGYM (SEQ ID NO:7).
CD8 T cell responses of peptide epitope Trp1455/9M (TAPDNLGYM) (SEQ ID NO:2) containing 2 types of hydrophobic tails (LMFVMFV-TAPDNLGYM (SEQ ID NO:10) and (Pam)2KMFV-TAPDNLGYM (SEQ ID NO:11)) at the amino terminus end were measured by tetramer analysis after i.v. prime-boost (2 weeks apart) vaccination using peptide mixed with 50 μg Poly-IC. Immune responses in 3 individual mice measured 7 days after the boost in blood samples. Numbers below the rectangular gates correspond to the % tetramer positive (antigen-specific) cells of the total CD8 T cell population.
Comparison of CD8 T cell responses of peptide epitope (pam)2Trp455/9M [(Pam)2KMFV-TAPDNLGYM] (SEQ ID NO:11) injected together with 50 μg Poly-IC (top panels) or 3.5 hours after the Poly-IC (bottom panels). Immune response in 3 individual mice measured 7 days after an identical boost (12 days apart) in blood samples. Numbers below the rectangular gates correspond to the % tetramer positive (antigen-specific) cells of the total CD8 T cell population.

[3] = test system: antigen-specific CD8 T lymphocytes; assay: Immunogenicity of modified peptides with immune adjuvants (general observations, adjuvant type and timing); conditions: in vivo
Procedure: Arginine-containing peptides and the hydrophobic peptides are highly immunogenic when administered together with Poly-IC because they are able to form complexes. This is supported by the observations that if the Poly-IC is injected intravenously (i.v) 3.5 to 5 hr before the peptide (also i.v.), then the immune responses are dramatically lower as compared to circumstances when both peptide and Poly-IC are administered together (FIGS. 7 and 8).
The inventors are developing assays that measure the formation of these complexes. The data has been observed with Poly-IC, which is both a TLR3 agonist and ligand for RIG-1 like receptors, or cytoplasmic helicases.
There are examples of antigens (proteins or peptides) that are conjugated to antibodies specific for cell surface molecules expressed on antigen-presenting cells in order to specifically target the antigens to these cells to generate immune responses. […] This is likely due to the antibodies, while targeting the antigen to the appropriate antigen-presenting cell, are not sufficiently stimulatory to activate the cell to become optimal to stimulate the T cell responses. In addition, the ODN-CpG-peptide complexes are not captured as efficiently due to their relatively small size, as compared to the peptide-poly-IC complexes, by the scavenger receptors on the antigen-presenting cells. […]

[4] = 50 μg Poly-IC, 7 days after identical boost (12 days apart), blood
[5] = hydrophobic tail at amino terminus, peptide mixed with 50 μg Poly-IC

AAHYNIVTF (peptide epitope hpv16-e7 49/1a) [HPV16-E749/1A]
capacity of the peptide to bind to the MHC molecule and be recognized by T cells (MHC molecule): does not interfere with the capacity of the peptide to bind to the MHC molecule and be recognized by T cells | immunogenicity of peptide epitope (CD8 T cell response, tetramer analysis) [1]: reduces its immunogenicity | immunogenicity of peptide epitope (CD8 T cell response, tetramer analysis) ([1]; listed as AAHYNIVTF): reduced dramatically the immunogenicity

(Pam)2KMFV-TAPDNLGYM (KMFVTAPDNLGYM; not fully specified (residue 1); printed as (Pam)2KMFV-TAPDNLGYM)
immune response, peptide injected together with Poly-IC versus 3.5 hours after the Poly-IC [2, 4]: stronger immune responses | immunogenicity of peptide epitope (CD8 T cell response, tetramer analysis) [2, 5]: increase the immunogenicity

polyinosinic:polycytidylic acid [poly-IC]
effect on immune responses of injection prior to the injection of peptide-poly-IC complexes [3]: inhibition of the immune responses | generation of secondary (booster) immune responses by adjuvant [3]: very potent

LMFVMFV-TAPDNLGYM (LMFVMFVTAPDNLGYM; peptide epitope Trp1 455/9m with hydrophobic tail)
immunogenicity of peptide epitope (CD8 T cell response, tetramer analysis) [2, 5]: increase the immunogenicity

(R)3-MFVTAPDNLGYM (RRRMFVTAPDNLGYM; 3 arginine tail epitope Trp1 455/9m)
immunogenicity of peptide epitope compared with hepta-arginine (R)7 tail [2]: increases immunogenicity of a peptide epitope similar to the results obtained from a hepta-arginine (R)7 tail | immunogenicity of peptide epitope compared with hepta-arginine (R)7 tail ([2]; listed as (R)3): function as well as peptides with seven arginines (R)7

RAHYNIVTF (peptide epitope hpv16-e7 49) [HPV16-E749]
immune response, peptide injected together with Poly-IC versus 5 hours after the Poly-IC [1, 4]: stronger immune responses | immunogenicity of peptide epitope (CD8 T cell response, tetramer analysis) [1]: more immunogenic than AAHYNIVTF

(R)7-MFV-TAPDNLGYM (RRRRRRRMFVTAPDNLGYM; 7 arginine tail epitope Trp1 455/9m)
immunogenicity of peptide epitope (CD8 T cell response, tetramer analysis) ([2]; charged amino acid tail + MFV linker, 120 μg peptide mixed with 50 μg Poly-IC): increases the immunogenicity | immunogenicity of peptide epitope (CD8 T cell response, tetramer analysis) ([2]; charged amino acid tail + MFV linker, 120 μg peptide mixed with 50 μg Poly-IC, listed as R7): function as good immunogens
